Reference: US9925189B2, “Heterocyclic receptor agonists for the treatment of diabetes and metabolic disorders” (CymaBay Therapeutics, Inc., priority 2006, dated 2018)

Target: T1, IC-GPCR2 (Homo sapiens, UniProt Q8TDV5, S309L)
T1 construct: expressed in transfected cells
T1 sequence (Q8TDV5 1-335 S309L): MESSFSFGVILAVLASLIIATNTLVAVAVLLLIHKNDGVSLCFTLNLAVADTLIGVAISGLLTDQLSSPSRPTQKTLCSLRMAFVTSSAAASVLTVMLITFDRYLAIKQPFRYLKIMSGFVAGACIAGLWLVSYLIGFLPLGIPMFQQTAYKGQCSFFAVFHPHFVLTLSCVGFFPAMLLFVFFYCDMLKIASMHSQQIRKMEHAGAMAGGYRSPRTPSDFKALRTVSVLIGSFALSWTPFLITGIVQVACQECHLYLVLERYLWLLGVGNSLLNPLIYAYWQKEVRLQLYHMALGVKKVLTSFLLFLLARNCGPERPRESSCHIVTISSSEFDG
Test: Stimulation of cAMP in CHO cells stably expressing IC-GPCR2 (HTRF cAMP assay)
Type: cell-based
Conditions: 0.5 h, 30 minutes, IC-GPCR2 stably expressing CHO cells, read-out: Activity at 10 uM (% change in FRET signal from DMSO control)
Summary of the method: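 CHO cells stably expressing IC-GPCR2, plated at 17500 cells/well, treated next day for 30 min in Ham's F12 with compounds at 6–8 concentrations from 0.00003 to 10 μM; parental CHO cells also screened. Intracellular cAMP read by HTRF competitive immunoassay (665/620 nm ratio). Activity given as % FRET change from DMSO control.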

Row | SMILES | activation at 10 µM [%]
1 | Nc1cnc(N2CCC(c3nc(COc4ccc(-n5cnnn5)cc4)cs3)CC2)nc1 [Example 107, 2-{4-[4-(4-Tetrazol-1-yl-phenoxymethyl)-thiazol-2-yl]-piperidin-1-yl}-pyrimidin-5-ylamine] | 53
2 | CC(C)COC(=O)N1CCC(c2nc(COc3ccc(-n4cnnn4)cc3)cs2)CC1 [Example 30, 4-[4-(4-Tetrazol-1-yl-phenoxymethyl)-thiazol-2-yl]-piperidine-1-carboxylic acid isobutyl ester] | 73
3 | CC(C)(C)COC(=O)N1CCC(c2nc(COc3ccc(-n4cnnn4)cc3)cs2)CC1 [Example 34, 4-[4-(4-Tetrazol-1-yl-phenoxymethyl)-thiazol-2-yl]-piperidine-1-carboxylic acid 2,2-dimethyl-propyl ester] | 70
4 | CC(C)(C)OC(=O)N1CCC(c2nc(COc3ccc(C(=O)O)cc3)cs2)CC1 [Example 131, 4-[4-(4-Carboxy-phenoxymethyl)-thiazol-2-yl]-piperidine-1-carboxylic acid tert-butyl ester] | 24
5 | CC(C)(C)OC(=O)N1CCC(c2nc(COc3ccc([S+]([O-])C(F)(F)F)cc3)cs2)CC1 (centres unmarked) [Example 111, 4-[4-(4-Trifluoromethanesulfinyl-phenoxymethyl)-thiazol-2-yl]-piperidine-1-carboxylic acid tert-butyl ester] | 68
6 | CC(C)(C)OC(=O)N1CCC(c2nc(COc3ccc(-n4cnnn4)cc3)cs2)CC1 [Example 7, 4-[4-(4-Tetrazol-1-yl-phenoxymethyl)-thiazol-2-yl]-piperidine-1-carboxylic acid tert-butyl ester] | 64
7 | CC(C)(C)OC(=O)N1CCC(c2nc(COc3ccc(-n4cnnn4)c(F)c3)cs2)CC1 [Example 17, 4-[4-(3-Fluoro-4-tetrazol-1-yl-phenoxymethyl)-thiazol-2-yl]-piperidine-1-carboxylic acid tert-butyl ester] | 69
8 | CC(C)(C)OC(=O)N1CCC(c2nc(COc3ccccc3)cs2)CC1 [Example 137, 4-(4-Phenoxymethyl-thiazol-2-yl)-piperidine-1-carboxylic acid tert-butyl ester] | 35
9 | CC(C)(C)OCC(=O)N1CCC(c2nc(COc3ccc(-n4cnnn4)cc3)cs2)CC1 [Example 157, 2-tert-Butoxy-1-{4-[4-(4-tetrazol-1-yl-phenoxymethyl)-thiazol-2-yl]-piperidin-1-yl}-ethanone] | 57
10 | COC(=O)C(=O)N1CCC(c2nc(COc3ccc(-n4cnnn4)cc3)cs2)CC1 [Example 42, Oxo-{4-[4-(4-tetrazol-1-yl-phenoxymethyl)-thiazol-2-yl]-piperidin-1-yl}-acetic acid methyl ester] | 67
11 | FC(F)(F)c1noc(N2CCC(c3nc(COc4ccc(-n5cnnn5)cc4)cs3)CC2)n1 [Example 98, 4-[4-(4-Tetrazol-1-yl-phenoxymethyl)-thiazol-2-yl]-1-(3-trifluoromethyl-[1,2,4]oxadiazol-5-yl)-piperidine] | 78
12 | CC(C)(C)CC(=O)N1CCC(c2nc(COc3ccc(-n4cnnn4)cc3)cs2)CC1 [Example 41, 3,3-Dimethyl-1-{4-[4-(4-tetrazol-1-yl-phenoxymethyl)-thiazol-2-yl]-piperidin-1-yl}-butan-1-one] | 75
13 | CCc1cnc(N2CCC(c3nc(COc4ccc(SC)c(C)c4)cs3)CC2)nc1 [Example 13] | 94
14 | CC(C)(C)OC(=O)N1CCC(c2nc(COc3ccc(SC(F)(F)F)cc3)cs2)CC1 [Example 134, 4-[4-(4-Trifluoromethylsulfanyl-phenoxymethyl)-thiazol-2-yl]-piperidine-1-carboxylic acid tert-butyl ester] | 68
15 | CC(C)(C)OC(=O)N1CCC(c2nc(COc3ccc(OCc4ccccc4)cc3)cs2)CC1 [Example 135, 4-[4-(4-Benzyloxy-phenoxymethyl)-thiazol-2-yl]-piperidine-1-carboxylic acid tert-butyl ester] | 66
16 | CS(=O)(=O)c1ccc(OCc2csc(C3CCN(C(=O)Oc4cccc5ccccc45)CC3)n2)cc1 [Example 29, 4-[4-(4-Methanesulfonyl-phenoxymethyl)-thiazol-2-yl]-piperidine-1-carboxylic acid naphthalen-1-yl ester] | 51
17 | CC(C)(C)OC(=O)N1CCC(c2nc(CS(=O)(=O)c3ccc(S(C)(=O)=O)cc3)cs2)CC1 [Example 21, 4-[4-(4-Methanesulfonyl-benzenesulfonylmethyl)-thiazol-2-yl]-piperidine-1-carboxylic acid tert-butyl ester] | 23
18 | CCc1cnc(N2CCC(c3nc(COc4ccc(-n5cnnn5)cc4Cl)cs3)CC2)nc1 [Example 120, 2-{4-[4-(2-Chloro-4-tetrazol-1-yl-phenoxymethyl)-thiazol-2-yl]-piperidin-1-yl}-5-ethyl-pyrimidine] | 73
19 | CCCCCCCOC(=O)N1CCC(c2nc(COc3ccc(-n4cnnn4)cc3)cs2)CC1 [Example 155, 4-[4-(4-Tetrazol-1-yl-phenoxymethyl)-thiazol-2-yl]-piperidine-1-carboxylic acid heptyl ester] | 73
20 | CCOC(=O)c1cnc(N2CCC(c3nc(COc4ccc(-n5cnnn5)cc4)cs3)CC2)s1 [Example 180, 2-{4-[4-(4-Tetrazol-1-yl-phenoxymethyl)-thiazol-2-yl]-piperidin-1-yl}-thiazole-5-carboxylic acid ethyl ester] | 59
21 | CC(C)(C)OC(=O)N1CCC(c2nc(COc3c(F)cc(S(C)(=O)=O)cc3F)cs2)CC1 [Example 132, 4-[4-(2,6-Difluoro-4-methanesulfonyl-phenoxymethyl)-thiazol-2-yl]-piperidine-1-carboxylic acid tert-butyl ester] | 70
22 | CC(C)(C)OC(=O)N1CCC(c2nc(CNc3ccc(F)nc3)cs2)CC1 [Example 94, 4-{4-[(6-Fluoro-pyridin-3-ylamino)-methyl]-thiazol-2-yl}-piperidine-1-carboxylic acid tert-butyl ester] | 48
23 | CCc1cnc(N2CCC(F)(c3ncc(COc4ccc(S(C)(=O)=O)cc4)s3)CC2)nc1 [Example 90, 5-Ethyl-2-{4-fluoro-4-[5-(4-methanesulfonyl-phenoxymethyl)-thiazol-2-yl]-piperidin-1-yl}-pyrimidine] | 64
24 | CCc1cnc(N2CCC(c3nc(COc4ccc(-n5cnnn5)cc4)co3)CC2)nc1 [Example 169, 5-Ethyl-2-{4-[4-(4-tetrazol-1-yl-phenoxymethyl)-oxazol-2-yl]-piperidin-1-yl}-pyrimidine] | 85
25 | CCCCOC(=O)N1CCC(c2nc(COc3ccc(-n4cnnn4)cc3)cs2)CC1 [Example 33, 4-[4-(4-Tetrazol-1-yl-phenoxymethyl)-thiazol-2-yl]-piperidine-1-carboxylic acid butyl ester] | 77
26 | CCc1cnc(N2CCC(F)(c3nc(COc4ccc(S(C)(=O)=O)cc4)cs3)CC2)nc1 [Example 88, 5-Ethyl-2-{4-fluoro-4-[4-(4-methanesulfonyl-phenoxymethyl)-thiazol-2-yl]-piperidin-1-yl}-pyrimidine] | 49
